Earlier results, collected in patent US7056734B1, “Differentiation of non-insulin producing cells into insulin producing cells by GLP-1 or exendin-4 and uses thereof” (The United States of America as represented by the …, priority 1998, dated 2006).

System: AR42J cells
Conditions: Mashima et al., 1996; cited from earlier work

HGF: hepatocyte growth factor
AR42J cells converted into insulin-producing / insulin positive cells: about 3%
